Measurements reported in patent US8754242B2, “Herbicides” (Syngenta Crop Protection LLC, priority 2007, dated 2014).

Columns and labels:
Type in all cases: in vivo
[1] = test system: Echinochloa crus-galli (ECHCG); test: Test Example 1 pre-emergence herbicidal activity; conditions: Echinochloa crus-galli, 480 h, rate 250 g/ha, evaluated 20 days later, read-out: Pre-emergence activity ECHCG (100=total damage to plant; 0=no damage to plant)
Summary of the method: (§1)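 Greenhouse pot test; spray application pre-emergence (1 d after sowing) or post-emergence (10 d growth). Rating 0–100% damage; pre read at 20 d, post at 15 d.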

[2] = test system: Alopecurus myosuroides (ALOMY); test: Test Example 1 pre-emergence herbicidal activity; conditions: Alopecurus myosuroides, 480 h, rate 250 g/ha, evaluated 20 days later, read-out: Pre-emergence activity ALOMY (100=total damage to plant; 0=no damage to plant)
Summary of the method: as §1

Lolium perenne (LOLPE) [3] = test: Test Example 1 pre-emergence herbicidal activity; conditions: Lolium perenne, 480 h, rate 250 g/ha, evaluated 20 days later, read-out: Pre-emergence activity LOLPE (100=total damage to plant; 0=no damage to plant)
Summary of the method: as §1

[4] = test system: Digitaria sanguinalis (DIGSA); test: Test Example 1 pre-emergence herbicidal activity; conditions: Digitaria sanguinalis, 480 h, rate 250 g/ha, evaluated 20 days later, read-out: Pre-emergence activity DIGSA (100=total damage to plant; 0=no damage to plant)
Summary of the method: as §1

Avena fatua (AVEFA) [5] = test: Test Example 1 pre-emergence herbicidal activity; conditions: Avena fatua, 480 h, rate 250 g/ha, evaluated 20 days later, read-out: Pre-emergence activity AVEFA (100=total damage to plant; 0=no damage to plant)
Summary of the method: as §1

Setaria faberi (SETFA) [6] = test: Test Example 1 pre-emergence herbicidal activity; conditions: Setaria faberi, 480 h, rate 250 g/ha, evaluated 20 days later, read-out: Pre-emergence activity SETFA (100=total damage to plant; 0=no damage to plant)
Summary of the method: as §1

[7] = test system: Echinochloa crus-galli (ECHCG); test: Test Example 1 post-emergence herbicidal activity; conditions: 360 h, rate 125 g/ha, evaluated 15 days later, read-out: Post-emergence activity ECHCG (100=total damage to plant; 0=no damage to plant)
Summary of the method: as §1

[8] = test system: Alopecurus myosuroides (ALOMY); test: Test Example 1 post-emergence herbicidal activity; conditions: 360 h, rate 125 g/ha, evaluated 15 days later, read-out: Post-emergence activity ALOMY (100=total damage to plant; 0=no damage to plant)
Summary of the method: as §1

Lolium perenne (LOLPE) [9] = test: Test Example 1 post-emergence herbicidal activity; conditions: 360 h, rate 125 g/ha, evaluated 15 days later, read-out: Post-emergence activity LOLPE (100=total damage to plant; 0=no damage to plant)
Summary of the method: as §1

[10] = test system: Digitaria sanguinalis (DIGSA); test: Test Example 1 post-emergence herbicidal activity; conditions: 360 h, rate 125 g/ha, evaluated 15 days later, read-out: Post-emergence activity DIGSA (100=total damage to plant; 0=no damage to plant)
Summary of the method: as §1

Avena fatua (AVEFA) [11] = test: Test Example 1 post-emergence herbicidal activity; conditions: 360 h, rate 125 g/ha, evaluated 15 days later, read-out: Post-emergence activity AVEFA (100=total damage to plant; 0=no damage to plant)
Summary of the method: as §1

Setaria faberi (SETFA) [12] = test: Test Example 1 post-emergence herbicidal activity; conditions: 360 h, rate 125 g/ha, evaluated 15 days later, read-out: Post-emergence activity SETFA (100=total damage to plant; 0=no damage to plant)
Summary of the method: as §1

Compound | pest or weed control at 250 g/ha [1] | pest or weed control at 250 g/ha [2] | pest or weed control at 250 g/ha (Lolium perenne (LOLPE) [3]) | pest or weed control at 250 g/ha [4] | pest or weed control at 250 g/ha (Avena fatua (AVEFA) [5]) | pest or weed control at 250 g/ha (Setaria faberi (SETFA) [6]) | pest or weed control at 125 g/ha [7] | pest or weed control at 125 g/ha [8] | pest or weed control at 125 g/ha (Lolium perenne (LOLPE) [9]) | pest or weed control at 125 g/ha [10] | pest or weed control at 125 g/ha (Avena fatua (AVEFA) [11]) | pest or weed control at 125 g/ha (Setaria faberi (SETFA) [12])
CCc1cc(C)cc(CC)c1C1=C(O)[C@@H]2[C@@H]3O[C@@H](C[C@H]3c3cccc(C(C)=O)c3)[C@@H]2C1=O (racemic) [Example T174] | 0% | 30% | 30% | 40% | 30% | 0% | 80% | 70% | 40% | 70% | 70% | 50%
CCc1cc(C)cc(CC)c1C1=C(O)[C@@H]2[C@@H]3O[C@@H](C[C@H]3c3ccc(F)c(F)c3)[C@@H]2C1=O (racemic) [Example T178] | 100% | 70% | 80% | 80% | 40% | 100% | 100% | 100% | 90% | 100% | 90% | 100%
CCc1cc(C)cc(CC)c1C1=C(O)[C@@H]2[C@@H]3O[C@@H](C[C@H]3c3ccc(C)cc3)[C@@H]2C1=O (racemic) [Example T180] | 60% | 30% | 70% | 80% | 20% | 40% | 100% | 90% | 70% | 90% | 70% | 100%
CCc1cc(C)cc(CC)c1C1=C(O)[C@@H]2[C@@H]3O[C@@H](C[C@H]3c3cc(OC)c(OC)c(OC)c3)[C@@H]2C1=O (racemic) [Example T181] | 100% | 40% | 80% | 90% | 40% | 70% | 100% | 90% | 80% | 80% | 90% | 100%
CCc1cc(C)cc(CC)c1C1=C(O)[C@@H]2[C@@H]3O[C@@H](C[C@H]3c3cc([N+](=O)[O-])ccc3C)[C@@H]2C1=O (racemic) [Example T184] | 60% | 30% | 70% | 70% | 60% | 90% | 100% | 10% | 10% | 20% | 0% | 50%
Cc1cc(C)c(C2=C(O)[C@@H]3[C@@H]4O[C@@H](C[C@H]4c4cc(C(F)(F)F)nc(C(F)(F)F)c4)[C@@H]3C2=O)c(C)c1 (racemic) [Example T199] | 80% | 0% | 60% | 100% | 50% | 60% | 100% | 100% | 60% | 100% | 100% | 80%
Cc1cc(C)c(C2=C(O)[C@@H]3[C@@H]4O[C@@H](C[C@H]4c4ccc(C(F)(F)F)cn4)[C@@H]3C2=O)c(C)c1 (racemic) [Example T200] | 90% | 0% | 70% | 70% | 0% | 70% | 100% | 70% | 80% | 100% | 80% | 100%
CCC(C)C(=O)OC1=C(c2c(C)cc(C)cc2C)C(=O)[C@@H]2[C@H]1[C@H]1CC[C@@H]2O1 (stereo partly drawn) [Example P9] | 80% | 100% | 100% | 90% | 100% | 80% | 90% | 100% | 100% | 80% | 90% | 80%
Cc1cc(C)c(C2=C(OC(=O)C(C)C)[C@H]3[C@@H](C2=O)[C@@H]2CC[C@H]3O2)c(C)c1 [Example P10] | 100% | 100% | 100% | 100% | 100% | 80% | 100% | 100% | 100% | 80% | 90% | 80%
CCc1cc(C)cc(CC)c1C1=C(OC(=O)CCCCCCC(=O)OC)[C@H]2[C@@H](C1=O)[C@@H]1CC[C@H]2O1 [Example P16] | 100% | 100% | 90% | 100% | 90% | 100% | 100% | 100% | 100% | 100% | 90% | 100%
CCc1cc(C)cc(CC)c1C1=C(OC(=O)CC(C)C)[C@H]2[C@@H](C1=O)[C@@H]1CC[C@H]2O1 [Example P19] | 100% | 100% | 100% | 100% | 100% | 100% | 100% | 100% | 100% | 100% | 100% | 100%
C=CCC(=O)OC1=C(c2c(CC)cc(C)cc2CC)C(=O)[C@@H]2[C@H]1[C@H]1CC[C@@H]2O1 [Example P23] | 100% | 80% | 100% | 100% | 90% | 100% | 100% | 100% | 90% | 70% | 90% | 80%
CCc1cc(C)cc(CC)c1C1=C(OC(=O)C(C)C)[C@H]2[C@@H](C1=O)[C@@H]1CC[C@H]2O1 [Example P26] | 100% | 100% | 100% | 100% | 90% | 100% | 100% | 100% | 90% | 100% | 100% | 100%
